According to ChEMBL document CHEMBL1201862, “PubChem BioAssay data set” (2004):
Calls of active or inactive are those of the source.

Experiments:
[1] = molecular target: T1, Estrogen receptor (Homo sapiens, UniProt P03372);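 further: potency for inhibiting coactivator peptide recruitment to the receptor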
T1 sequence (P03372 whole entry): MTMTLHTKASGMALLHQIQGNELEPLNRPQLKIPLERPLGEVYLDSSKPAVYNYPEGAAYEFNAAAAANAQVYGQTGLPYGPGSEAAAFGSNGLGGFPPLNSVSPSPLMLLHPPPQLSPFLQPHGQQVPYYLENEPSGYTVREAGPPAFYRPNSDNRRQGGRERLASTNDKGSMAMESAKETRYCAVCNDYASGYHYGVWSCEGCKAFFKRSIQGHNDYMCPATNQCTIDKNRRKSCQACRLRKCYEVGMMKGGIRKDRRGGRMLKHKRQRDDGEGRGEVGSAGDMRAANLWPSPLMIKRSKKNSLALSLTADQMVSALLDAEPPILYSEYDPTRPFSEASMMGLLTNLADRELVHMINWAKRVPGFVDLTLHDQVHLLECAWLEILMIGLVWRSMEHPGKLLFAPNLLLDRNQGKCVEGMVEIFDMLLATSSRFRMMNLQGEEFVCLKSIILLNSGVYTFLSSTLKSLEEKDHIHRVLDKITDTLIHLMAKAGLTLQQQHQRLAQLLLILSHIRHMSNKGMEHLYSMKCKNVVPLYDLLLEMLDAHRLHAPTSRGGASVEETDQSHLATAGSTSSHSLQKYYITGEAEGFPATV

[2] = molecular target: T2, Voltage-gated N-type calcium channel alpha-1B subunit/Amyloid beta A4 precursor protein-binding family A member 1 (Homo sapiens, UniProt Q00975+Q02410); format: protein assay
[3] = molecular target: T2, Voltage-gated N-type calcium channel alpha-1B subunit/Amyloid beta A4 precursor protein-binding family A member 1; format: protein assay; remark: listed apart in the source
[4] = molecular target: Large T antigen (Simian virus 40, UniProt P03070); format: functional, Betapolyomavirus macacae;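 further: Confirmatory-stage PubChem screen for compounds that inhibit SV40 T antigen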
[5] = molecular target: T3, Genome polyprotein (Hepatitis C virus, UniProt Q2Q167); assay: HCV core protein dimerization inhibitors, dose response, biochemical, TR-FRET (AID 2159); design: species or system Hepacivirus hominis;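 further: blocks dimerization of HCV core protein measured by TR-FRET between tagged core106 pairs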
T3 sequence (Q2Q167 whole entry): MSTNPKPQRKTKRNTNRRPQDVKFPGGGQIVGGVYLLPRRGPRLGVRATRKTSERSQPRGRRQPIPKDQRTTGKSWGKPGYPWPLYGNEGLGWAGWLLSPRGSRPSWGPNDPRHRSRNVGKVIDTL

[6] = molecular target: DNA dC->dU-editing enzyme APOBEC-3A (Homo sapiens, UniProt P31941); assay: Dose Response confirmation of small molecule APOBEC3A DNA Deaminase Inhibitors via a fluorescence-based single-stranded DNA deaminase assay. [Related pubchem assays (depositor defined):AID493011, AID493024]; format: functional
[7] = molecular target: DNA dC->dU-editing enzyme APOBEC-3G (Homo sapiens, UniProt Q9HC16); format: functional;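 further: Dose-response counterscreen measuring inhibition of APOBEC3G DNA deaminase activity, run while confirming APOBEC3A inhibitors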
[8] = molecular target: T4, Tyrosyl-DNA phosphodiesterase 2 (Homo sapiens, UniProt O95551); assay: human TDP2 enzyme inhibitors, dose response, biochemical, epi absorbance, IC50 (AID 743297)
T4 sequence (O95551 whole entry): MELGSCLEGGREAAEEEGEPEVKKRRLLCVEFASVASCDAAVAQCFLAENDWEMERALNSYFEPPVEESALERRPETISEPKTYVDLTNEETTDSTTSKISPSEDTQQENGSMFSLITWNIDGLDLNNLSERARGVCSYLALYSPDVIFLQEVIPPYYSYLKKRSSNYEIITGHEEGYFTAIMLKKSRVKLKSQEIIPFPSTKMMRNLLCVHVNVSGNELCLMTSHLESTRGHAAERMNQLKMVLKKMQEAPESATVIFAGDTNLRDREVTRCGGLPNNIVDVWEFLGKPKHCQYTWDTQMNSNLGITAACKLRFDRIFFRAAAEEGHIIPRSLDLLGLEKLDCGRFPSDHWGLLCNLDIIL

[9] = test system: INS1; assay: beta cell apoptosis inhibitors, cytokine rescue, dose response, luminescence, retest (AID 449756); format: functional, cell-based; conditions: Rattus norvegicus;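 further: cell death triggered by IL-1 beta plus TNF-alpha plus IFN-gamma mixture; protective hits raise ATP signal compared with cytokine alone wells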
[10] = molecular target: T5, Apoptotic protease-activating factor 1 (Homo sapiens, UniProt O14727); format: functional
T5 sequence (O14727 whole entry): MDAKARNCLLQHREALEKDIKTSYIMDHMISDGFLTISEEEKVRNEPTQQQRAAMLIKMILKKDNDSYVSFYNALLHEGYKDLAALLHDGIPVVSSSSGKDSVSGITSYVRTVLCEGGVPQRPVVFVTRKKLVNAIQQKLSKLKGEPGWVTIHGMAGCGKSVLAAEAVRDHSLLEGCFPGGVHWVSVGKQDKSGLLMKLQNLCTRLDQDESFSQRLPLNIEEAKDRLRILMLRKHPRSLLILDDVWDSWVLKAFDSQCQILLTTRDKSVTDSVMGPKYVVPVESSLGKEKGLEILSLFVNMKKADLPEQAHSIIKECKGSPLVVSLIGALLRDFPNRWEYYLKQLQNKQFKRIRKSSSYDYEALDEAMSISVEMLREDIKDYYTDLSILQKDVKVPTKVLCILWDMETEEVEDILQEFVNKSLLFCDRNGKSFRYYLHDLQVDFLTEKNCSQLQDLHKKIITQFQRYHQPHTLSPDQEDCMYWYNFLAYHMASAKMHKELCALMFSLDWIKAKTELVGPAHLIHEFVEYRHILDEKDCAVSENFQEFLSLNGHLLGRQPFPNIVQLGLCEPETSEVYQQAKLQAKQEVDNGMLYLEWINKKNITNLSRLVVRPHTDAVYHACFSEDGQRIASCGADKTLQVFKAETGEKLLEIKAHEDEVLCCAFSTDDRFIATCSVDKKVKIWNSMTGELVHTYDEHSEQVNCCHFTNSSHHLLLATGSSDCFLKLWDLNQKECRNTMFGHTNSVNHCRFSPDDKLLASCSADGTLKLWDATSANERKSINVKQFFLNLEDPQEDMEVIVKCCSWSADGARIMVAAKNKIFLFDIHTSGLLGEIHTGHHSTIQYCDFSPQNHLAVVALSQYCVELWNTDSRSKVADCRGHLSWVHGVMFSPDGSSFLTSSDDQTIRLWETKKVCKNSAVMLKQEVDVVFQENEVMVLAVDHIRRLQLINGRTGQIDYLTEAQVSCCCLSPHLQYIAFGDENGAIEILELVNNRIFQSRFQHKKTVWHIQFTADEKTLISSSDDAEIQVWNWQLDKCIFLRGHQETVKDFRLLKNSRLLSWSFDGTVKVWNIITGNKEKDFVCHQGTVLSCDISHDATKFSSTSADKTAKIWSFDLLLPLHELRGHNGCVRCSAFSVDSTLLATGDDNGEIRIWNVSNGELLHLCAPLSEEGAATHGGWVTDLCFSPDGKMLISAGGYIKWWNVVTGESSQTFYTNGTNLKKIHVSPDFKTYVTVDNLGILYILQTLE

[11] = molecular target: Voltage-dependent T-type calcium channel subunit alpha-1H (Homo sapiens, UniProt O95180); format: functional;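 further: channel activity triggered by adding a high calcium stimulation buffer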
[12] = molecular target: T6, Kappa-type opioid receptor (Homo sapiens, UniProt P41145); format: functional
[13] = molecular target: Mu-type opioid receptor (Homo sapiens, UniProt P35372); assay: HTS Image-Based Screen for Agonists of the MOR Receptor. [Related pubchem assays (depositor defined):AID1777, AID1785, AID1786, AID2133]; format: functional;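 further: imaging of beta-arrestin GFP recruitment into spots after receptor activation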
[14] = molecular target: T6, Kappa-type opioid receptor; format: functional; remark: listed apart in the source
[15] = molecular target: T7, Delta-type opioid receptor (Homo sapiens, UniProt P41143); assay: HTS Image-Based Screen for Agonists of the DOR Receptor. [Related pubchem assays (depositor defined):AID1777, AID1786, AID2133]; format: functional
[16] = molecular target: T7, Delta-type opioid receptor; assay: HTS Image-Based Screen for Antagonists of the DOR Receptor. [Related pubchem assays (depositor defined):AID1777, AID1785, AID1786, AID2133]; format: functional
[17] = molecular target: Beta-galactosidase (Escherichia coli, UniProt Q8VNN2); format: functional
[18] = molecular target: Phospholipase A2 (Homo sapiens, UniProt P04054); format: functional;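 further: confirmatory dose-response counterscreen on phospholipase A2, testing hits that came from an ultra-high-throughput screen for ATG4B inhibitors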
[19] = molecular target: T8, Alkaline phosphatase, tissue-nonspecific isozyme (Homo sapiens, UniProt P05186); assay: human TNAP enzyme inhibitors, SAR follow-up, biochemical, luminescent, dose response (AID 1056)
T8 sequence (P05186 whole entry): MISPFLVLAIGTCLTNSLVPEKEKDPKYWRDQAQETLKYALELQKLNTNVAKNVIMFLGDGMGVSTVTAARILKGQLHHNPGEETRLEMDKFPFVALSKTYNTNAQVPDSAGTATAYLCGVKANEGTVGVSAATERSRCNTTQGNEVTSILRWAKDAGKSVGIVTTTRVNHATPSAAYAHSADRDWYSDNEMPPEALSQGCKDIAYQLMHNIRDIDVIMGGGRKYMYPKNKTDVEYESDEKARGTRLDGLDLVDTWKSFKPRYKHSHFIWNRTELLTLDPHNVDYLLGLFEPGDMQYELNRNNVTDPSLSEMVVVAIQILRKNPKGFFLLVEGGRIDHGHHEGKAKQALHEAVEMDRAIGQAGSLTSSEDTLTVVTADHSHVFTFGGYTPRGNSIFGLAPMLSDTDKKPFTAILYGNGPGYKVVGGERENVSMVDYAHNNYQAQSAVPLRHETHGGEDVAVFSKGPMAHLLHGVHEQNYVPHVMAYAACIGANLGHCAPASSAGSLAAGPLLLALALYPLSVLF

[20] = molecular target: Alkaline phosphatase, placental type (Homo sapiens, UniProt P05187); assay: PLAP enzyme inhibitors, confirmation, biochemical, luminescence (AID 1512); format: functional
[21] = molecular target: Genome polyprotein (dengue virus type 2, UniProt P29990); assay: Dengue-2 NS5 methyltransferase inhibitors, primary screen, biochemical, confirmation dose response (AID 588689); format: functional
[22] = test system: Vero; assay: Vero cell cytotoxicity, cytotoxicity control for flavivirus capping enzyme inhibitors (AID 588742); format: functional; conditions: Chlorocebus sabaeus
[23] = molecular target: Glucose-6-phosphate 1-dehydrogenase (Homo sapiens, UniProt P11413); assay: human G6PD enzyme inhibitors, dose response, selectivity assay for P. falciparum G6PD inhibitor project, biochemical, fluorescence (AID 504792); format: functional
[24] = molecular target: Induced myeloid leukemia cell differentiation protein Mcl-1 (Homo sapiens, UniProt Q07820); format: functional

T2 sequence (Q00975 whole entry): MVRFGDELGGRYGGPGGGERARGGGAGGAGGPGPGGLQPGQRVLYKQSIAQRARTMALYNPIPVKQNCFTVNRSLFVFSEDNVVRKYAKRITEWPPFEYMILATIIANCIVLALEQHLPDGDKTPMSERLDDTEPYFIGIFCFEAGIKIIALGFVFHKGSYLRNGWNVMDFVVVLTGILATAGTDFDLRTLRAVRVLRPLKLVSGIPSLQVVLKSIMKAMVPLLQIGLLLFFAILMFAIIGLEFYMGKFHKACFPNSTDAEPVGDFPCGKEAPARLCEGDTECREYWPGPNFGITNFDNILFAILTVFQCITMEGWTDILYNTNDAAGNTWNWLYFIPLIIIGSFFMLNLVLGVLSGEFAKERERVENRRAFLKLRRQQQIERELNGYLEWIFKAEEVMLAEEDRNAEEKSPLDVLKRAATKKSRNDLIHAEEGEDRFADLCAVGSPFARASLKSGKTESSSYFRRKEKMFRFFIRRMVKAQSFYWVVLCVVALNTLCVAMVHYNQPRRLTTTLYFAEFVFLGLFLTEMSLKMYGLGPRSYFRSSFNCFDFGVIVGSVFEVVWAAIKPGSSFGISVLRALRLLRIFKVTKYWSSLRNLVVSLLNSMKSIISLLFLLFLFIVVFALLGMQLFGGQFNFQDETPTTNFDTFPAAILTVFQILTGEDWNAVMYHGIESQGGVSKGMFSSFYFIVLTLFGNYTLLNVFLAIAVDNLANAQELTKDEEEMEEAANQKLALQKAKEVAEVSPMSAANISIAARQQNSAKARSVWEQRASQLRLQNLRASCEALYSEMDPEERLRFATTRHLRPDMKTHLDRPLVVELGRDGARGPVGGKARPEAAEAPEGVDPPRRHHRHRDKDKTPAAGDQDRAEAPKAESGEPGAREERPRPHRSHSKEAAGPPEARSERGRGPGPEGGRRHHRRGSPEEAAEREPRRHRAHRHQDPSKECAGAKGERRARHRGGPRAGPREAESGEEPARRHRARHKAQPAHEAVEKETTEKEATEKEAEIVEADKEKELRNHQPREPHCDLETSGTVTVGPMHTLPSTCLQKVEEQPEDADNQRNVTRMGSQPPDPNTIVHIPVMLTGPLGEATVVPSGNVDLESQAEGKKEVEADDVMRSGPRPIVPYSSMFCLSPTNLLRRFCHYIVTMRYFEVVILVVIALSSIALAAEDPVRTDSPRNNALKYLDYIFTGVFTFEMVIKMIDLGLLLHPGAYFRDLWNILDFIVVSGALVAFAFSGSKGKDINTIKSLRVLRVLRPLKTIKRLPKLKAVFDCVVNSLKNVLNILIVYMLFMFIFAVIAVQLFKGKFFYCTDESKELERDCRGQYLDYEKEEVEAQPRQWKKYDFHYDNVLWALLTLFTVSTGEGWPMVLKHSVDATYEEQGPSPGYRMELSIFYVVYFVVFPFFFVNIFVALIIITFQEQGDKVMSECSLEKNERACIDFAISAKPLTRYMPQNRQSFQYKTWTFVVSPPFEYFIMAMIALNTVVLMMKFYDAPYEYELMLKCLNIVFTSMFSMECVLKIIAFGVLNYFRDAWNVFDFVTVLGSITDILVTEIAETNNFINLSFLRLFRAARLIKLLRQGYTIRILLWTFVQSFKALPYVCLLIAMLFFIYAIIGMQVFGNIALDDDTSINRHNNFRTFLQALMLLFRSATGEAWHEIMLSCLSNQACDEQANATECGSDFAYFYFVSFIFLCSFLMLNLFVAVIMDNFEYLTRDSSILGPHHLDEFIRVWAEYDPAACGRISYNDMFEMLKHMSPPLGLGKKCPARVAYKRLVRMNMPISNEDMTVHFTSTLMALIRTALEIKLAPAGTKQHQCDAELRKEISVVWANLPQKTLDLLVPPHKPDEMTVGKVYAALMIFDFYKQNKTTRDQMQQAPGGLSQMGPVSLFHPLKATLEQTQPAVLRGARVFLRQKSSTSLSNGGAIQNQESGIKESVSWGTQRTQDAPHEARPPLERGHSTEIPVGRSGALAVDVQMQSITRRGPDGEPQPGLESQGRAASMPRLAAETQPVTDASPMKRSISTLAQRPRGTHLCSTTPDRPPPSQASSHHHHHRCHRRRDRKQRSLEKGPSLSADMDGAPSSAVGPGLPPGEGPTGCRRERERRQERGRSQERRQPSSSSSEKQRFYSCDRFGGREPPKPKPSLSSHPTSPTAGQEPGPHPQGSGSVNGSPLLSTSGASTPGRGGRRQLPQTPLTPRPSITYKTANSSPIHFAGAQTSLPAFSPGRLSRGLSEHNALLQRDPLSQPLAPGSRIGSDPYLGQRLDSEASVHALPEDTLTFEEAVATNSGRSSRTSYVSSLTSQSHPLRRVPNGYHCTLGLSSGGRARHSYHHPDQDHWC
T2 sequence (Q02410 whole entry): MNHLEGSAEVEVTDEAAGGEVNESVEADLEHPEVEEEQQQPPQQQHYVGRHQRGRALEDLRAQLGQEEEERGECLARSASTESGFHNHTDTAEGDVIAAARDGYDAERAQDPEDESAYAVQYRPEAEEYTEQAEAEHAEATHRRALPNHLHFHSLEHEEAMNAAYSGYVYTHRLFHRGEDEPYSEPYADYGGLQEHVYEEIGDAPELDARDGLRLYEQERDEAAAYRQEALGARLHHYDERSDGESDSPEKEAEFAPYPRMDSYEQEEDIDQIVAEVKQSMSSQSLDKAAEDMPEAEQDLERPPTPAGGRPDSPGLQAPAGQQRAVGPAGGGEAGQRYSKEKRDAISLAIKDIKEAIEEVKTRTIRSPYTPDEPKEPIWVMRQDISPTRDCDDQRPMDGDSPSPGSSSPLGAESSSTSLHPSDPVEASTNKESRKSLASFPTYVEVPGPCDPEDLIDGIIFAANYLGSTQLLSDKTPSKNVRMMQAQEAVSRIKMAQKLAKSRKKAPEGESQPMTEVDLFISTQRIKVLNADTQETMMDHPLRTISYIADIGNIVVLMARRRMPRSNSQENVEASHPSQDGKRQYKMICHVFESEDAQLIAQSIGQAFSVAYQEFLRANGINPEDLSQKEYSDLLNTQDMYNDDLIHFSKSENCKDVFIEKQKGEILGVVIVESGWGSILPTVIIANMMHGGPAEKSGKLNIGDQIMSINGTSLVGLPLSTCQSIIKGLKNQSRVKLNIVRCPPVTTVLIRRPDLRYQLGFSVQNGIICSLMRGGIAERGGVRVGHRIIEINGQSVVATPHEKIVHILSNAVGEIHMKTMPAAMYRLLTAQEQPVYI
T6 sequence (P41145 whole entry): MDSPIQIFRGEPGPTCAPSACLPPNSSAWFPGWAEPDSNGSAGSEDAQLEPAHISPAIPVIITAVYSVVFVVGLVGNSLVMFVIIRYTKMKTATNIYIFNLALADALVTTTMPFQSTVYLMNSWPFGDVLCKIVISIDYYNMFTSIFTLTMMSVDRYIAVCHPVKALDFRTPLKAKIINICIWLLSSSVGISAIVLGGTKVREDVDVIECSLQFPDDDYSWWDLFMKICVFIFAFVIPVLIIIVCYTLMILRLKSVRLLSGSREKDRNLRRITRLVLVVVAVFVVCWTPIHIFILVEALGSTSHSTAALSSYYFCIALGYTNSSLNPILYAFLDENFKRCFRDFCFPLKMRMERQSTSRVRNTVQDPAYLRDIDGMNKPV
T7 sequence (P41143 whole entry): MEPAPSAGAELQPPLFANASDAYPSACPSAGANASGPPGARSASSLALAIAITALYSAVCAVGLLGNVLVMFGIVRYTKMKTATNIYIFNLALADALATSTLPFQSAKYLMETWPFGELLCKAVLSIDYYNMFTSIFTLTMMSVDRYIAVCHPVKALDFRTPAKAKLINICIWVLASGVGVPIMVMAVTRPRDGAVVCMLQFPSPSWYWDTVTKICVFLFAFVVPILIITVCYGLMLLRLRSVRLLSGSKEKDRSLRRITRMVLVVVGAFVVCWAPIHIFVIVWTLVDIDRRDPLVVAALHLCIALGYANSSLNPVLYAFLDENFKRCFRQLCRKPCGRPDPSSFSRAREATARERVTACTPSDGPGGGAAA
Alkaline phosphatase, placental type, sequence (P05187 whole entry): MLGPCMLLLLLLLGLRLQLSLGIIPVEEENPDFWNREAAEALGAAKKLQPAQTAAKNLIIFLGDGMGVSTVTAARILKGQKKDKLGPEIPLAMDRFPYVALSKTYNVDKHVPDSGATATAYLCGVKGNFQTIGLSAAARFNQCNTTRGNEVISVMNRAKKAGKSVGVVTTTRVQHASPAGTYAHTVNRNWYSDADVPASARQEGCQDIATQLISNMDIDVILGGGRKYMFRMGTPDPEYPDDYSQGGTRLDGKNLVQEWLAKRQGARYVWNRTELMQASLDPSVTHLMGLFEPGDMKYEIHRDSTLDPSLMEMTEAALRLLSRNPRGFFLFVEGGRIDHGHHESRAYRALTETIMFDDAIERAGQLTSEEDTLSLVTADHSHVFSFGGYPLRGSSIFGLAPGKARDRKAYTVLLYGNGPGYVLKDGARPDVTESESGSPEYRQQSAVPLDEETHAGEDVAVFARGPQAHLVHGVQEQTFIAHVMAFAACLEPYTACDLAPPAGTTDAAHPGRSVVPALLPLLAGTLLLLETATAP
DNA dC->dU-editing enzyme APOBEC-3G, sequence (Q9HC16 whole entry): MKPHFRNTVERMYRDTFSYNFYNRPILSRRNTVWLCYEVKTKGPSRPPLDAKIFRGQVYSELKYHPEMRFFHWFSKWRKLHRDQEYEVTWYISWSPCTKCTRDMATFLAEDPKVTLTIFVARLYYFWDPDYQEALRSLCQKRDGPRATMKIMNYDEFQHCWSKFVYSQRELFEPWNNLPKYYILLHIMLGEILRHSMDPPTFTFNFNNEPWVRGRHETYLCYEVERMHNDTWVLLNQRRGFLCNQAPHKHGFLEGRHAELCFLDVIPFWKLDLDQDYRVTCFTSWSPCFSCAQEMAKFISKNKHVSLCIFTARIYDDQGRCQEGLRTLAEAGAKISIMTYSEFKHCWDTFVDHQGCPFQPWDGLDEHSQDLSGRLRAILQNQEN
DNA dC->dU-editing enzyme APOBEC-3A, sequence (P31941 whole entry): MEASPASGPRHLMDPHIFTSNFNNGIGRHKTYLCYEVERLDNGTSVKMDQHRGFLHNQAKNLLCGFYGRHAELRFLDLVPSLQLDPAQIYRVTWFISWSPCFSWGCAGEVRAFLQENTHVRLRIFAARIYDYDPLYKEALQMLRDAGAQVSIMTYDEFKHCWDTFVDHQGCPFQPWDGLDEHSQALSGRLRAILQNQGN

Question: What does the source list for Cc1cccc(N2CSC3=C(C#N)C(c4ccc(C)o4)CC(=O)N3C2)c1 (stereo not given)?
Answer: IC50 [1]: 3.55 µM (active); IC50 [2]: 22.3 µM (active); IC50 [3]: 6.47 µM (active); IC50 [4]: 11.4 µM (active); IC50 [5]: > 49.8 µM (not active)

Question: COc1ccc(CCCC(=O)NC2CCCCC2C)c(C)c1 (stereo not given) was tested. Which IC50 [6] did it give?
Answer: 3.49 µM (active)

Question: And the IC50 [7]?
Answer: 2.99 µM (active)

Question: Cc1cccnc1NC(=O)CN1C(=O)COc2ccc(Cl)cc21 was tested. Which IC50 [6] did it give?
Answer: 1.91 µM (active)

Question: What about the IC50 [7] of the same compound?
Answer: 1.65 µM (active)

Question: Nc1ccc2nn(-c3cccc4ccccc34)nc2c1 was tested. Which IC50 [8] did it give?
Answer: > 128 µM (inactive)

Question: And the AC50 [9]?
Answer: 12.6 µM (active)

Question: And the IC50 [10]?
Answer: 50 µM (active)

Question: For COc1ccccc1N1CCN(C(c2cccs2)C(C)NS(=O)(=O)c2ccccc2)CC1 (stereo not given), which IC50 [10] is on record?
Answer: 10 µM (active)

Question: How did the EC50 [11] turn out when O=C(Nc1nnc(-c2cccs2)o1)c1cccc(Oc2ccccc2)c1 was run?
Answer: 3.02 µM (active)

Question: And the IC50 [12]?
Answer: > 32 µM

Question: And the EC50 [13]?
Answer: > 32 µM (inactive)

Question: And the IC50 [14]?
Answer: 9.8 µM (active)

Question: And the EC50 [15]?
Answer: > 32 µM (inactive)

Question: And the IC50 [16]?
Answer: > 32 µM (inactive)

Question: And the EC50 [17]?
Answer: > 31.5 µM (inactive)

Question: How did the IC50 [18] turn out when N#Cc1c(-c2cccc(Br)c2)cc(-c2ccco2)[nH]c1=O was run?
Answer: 11.7 µM (active)

Question: Which results are given for Cc1cc(C(=O)NCc2ccc(O)c(O)c2)c(C)o1?
Answer: IC50 [19]: 12.5 µM (active); IC50 [20]: > 100 µM (inactive)

Question: Which results are given for Cc1cc(C)c(S(=O)(=O)/N=C2/C=C(SCC(=O)O)C(=O)c3ccccc32)cc1C?
Answer: IC50 [21]: > 100 µM (active); CC50 [22]: 37.5 µM (active); IC50 [23]: 30.2 µM (inactive); IC50 [10]: 12.6 µM (active); IC50 [24]: 7.55 µM (active)

Question: O=C(CNC1CCCCC1)c1ccc(O)c(O)c1 was tested. Which IC50 [19] did it give?
Answer: > 100 µM (inactive)

Question: What about the IC50 [20] of the same compound?
Answer: 18.8 µM (active)
